Our source for the TGI and GI50 values is PubChem BioAssay (NCI).

Molecules are shown by their SMILES.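 96-well plates; 48 h exposure; 5 concentrations. Endpoints by linear interpolation between flanking doses. Not reached: highest tested concentration assigned. Abbreviation: GI50, concentration required for 50% inhibition of growth. TGI is the concentration that stops growth completely.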

Some test systems named below: ACHN renal; HCT-15 colon; SK-MEL-28 melanoma; EKVX NSCLC; OVCAR-8 ovarian; SF-268 CNS; MCF7 breast; HS 578T breast; SK-MEL-5 melanoma; SK-MEL-2 melanoma.
Holding throughout (test): NCI anticancer screen, dose series, 48 h

In the case of `O=C(O)CCC(C(=O)O)N1C(=O)C2C3CCC(C3)C2C1=O` (stereo unspecified), the TGI with ACHN renal, in the assay with HCT-15 colon, in the assay with SK-MEL-28 melanoma, in the assay on EKVX NSCLC, with OVCAR-8 ovarian and in the assay with SF-268 CNS was above 100 µM throughout. For the same compound, the TGI in the assay with MCF7 breast, in the assay on HS 578T breast, with SK-MEL-5 melanoma and with SK-MEL-2 melanoma was above 100 µM each time.
On to `CN1CCN(Cc2ccc(NC(=O)c3cncc(C#Cc4cnc(N)c5cnccc45)c3)cc2C(F)(F)F)CC1`, for which the GI50 with ACHN renal was 0.201 µM; in the assay on HCT-15 colon, 721 nM; with SK-MEL-28 melanoma, 93.7 nM; with EKVX NSCLC it was 0.485 µM; in the assay on OVCAR-8 ovarian, 0.253 µM; with SF-268 CNS, 0.234 µM. For the same compound, the GI50 with MCF7 breast was 0.921 µM; with HS 578T breast, 0.122 µM; in the assay on SK-MEL-5 melanoma, 0.277 µM; with SK-MEL-2 melanoma, 0.108 µM. The TGI in the assay on ACHN renal was 1.43 µM; in the assay on HCT-15 colon it was 6.31 µM; with SK-MEL-28 melanoma, 0.394 µM; in the assay with EKVX NSCLC, 4.4 µM; in the assay with OVCAR-8 ovarian it was 8.09 µM; in the assay with SF-268 CNS, 6.93 µM. Also, the TGI worked out at 8.75 µM with MCF7 breast, 0.7 µM in the assay on HS 578T breast, 0.952 µM with SK-MEL-5 melanoma and 0.283 µM with SK-MEL-2 melanoma.
On to `CN(C)CCNC(=O)NC[C@H]1CC[C@@H]2[C@H](O1)c1cc(C(F)(F)F)ccc1N[C@H]2c1ccccc1`, for which the GI50 with ACHN renal is 10.5 µM; in the assay with HCT-15 colon, 1020 nM; with SK-MEL-28 melanoma it was 1630 nM; in the assay on EKVX NSCLC, 11.1 µM; with OVCAR-8 ovarian, 0.233 µM; with SF-268 CNS it was 0.589 µM. For the same compound, the GI50 in the assay with MCF7 breast is 0.0389 µM; in the assay with HS 578T breast, 0.173 µM; in the assay with SK-MEL-5 melanoma it was 0.0999 µM; in the assay with SK-MEL-2 melanoma it was 0.15 µM. The TGI with ACHN renal is 23 µM; in the assay with HCT-15 colon, 16.5 µM; with SK-MEL-28 melanoma, 21.5 µM; with EKVX NSCLC, above 100 µM; in the assay on OVCAR-8 ovarian it was above 100 µM; in the assay on SF-268 CNS, 39.6 µM. Also, the TGI is 13.8 µM in the assay with MCF7 breast, 18.1 µM with HS 578T breast, 15.8 µM in the assay with SK-MEL-5 melanoma and 2.32 µM with SK-MEL-2 melanoma.
As for `C[CH2][Sn]([CH2]C)([O]C(=O)c1ccc(OC)c(OC)c1OC)[O]C(=O)c1ccc(OC)c(OC)c1OC`, the GI50 is 51.4 µM in the assay on ACHN renal; 61200 nM in the assay with HCT-15 colon; 26600 nM with SK-MEL-28 melanoma; above 100 µM in the assay on EKVX NSCLC; above 100 µM with OVCAR-8 ovarian; 28 µM with SF-268 CNS. Also, the GI50 is 24.7 µM in the assay on MCF7 breast, 23.2 µM with HS 578T breast, 99.2 µM in the assay on SK-MEL-5 melanoma and 28.7 µM with SK-MEL-2 melanoma. Also, the TGI with ACHN renal is above 78.9 µM; with HCT-15 colon it was above 100 µM; in the assay on SK-MEL-28 melanoma, above 69 µM; in the assay on EKVX NSCLC, above 100 µM; with OVCAR-8 ovarian, above 100 µM; in the assay with SF-268 CNS, above 46.4 µM. Besides, the TGI in the assay on MCF7 breast is 49.2 µM; with HS 578T breast, 88.8 µM; in the assay with SK-MEL-5 melanoma, above 100 µM; in the assay on SK-MEL-2 melanoma it was 81.7 µM.
For the compound `C#Cc1cccc(NC(=O)c2ccc(NC(=O)CCl)cc2)c1`, the GI50 with ACHN renal was 26.3 µM; in the assay with HCT-15 colon, 9950 nM; in the assay with SK-MEL-28 melanoma, above 82500 nM; in the assay on EKVX NSCLC it was above 82.5 µM; in the assay on OVCAR-8 ovarian, 22.5 µM; in the assay with SF-268 CNS, 18.7 µM. Also, the GI50 was 22.6 µM with MCF7 breast, 27.9 µM with HS 578T breast, 24.9 µM in the assay on SK-MEL-5 melanoma and 69.8 µM in the assay with SK-MEL-2 melanoma. Further, the TGI is above 82.5 µM in the assay on ACHN renal; 25 µM in the assay with HCT-15 colon; above 82.5 µM in the assay on SK-MEL-28 melanoma; above 82.5 µM in the assay on EKVX NSCLC; above 82.5 µM in the assay on OVCAR-8 ovarian; above 82.5 µM with SF-268 CNS. Further, the TGI in the assay with MCF7 breast, with HS 578T breast, in the assay on SK-MEL-5 melanoma and in the assay on SK-MEL-2 melanoma was above 82.5 µM throughout.
In the case of `O=C(O[C@H]1CCN2C[C@H]3C[C@H](CN4C(=O)CCC[C@H]34)[C@@H]2C1)c1ccc(O)cc1`, the TGI in the assay with ACHN renal, in the assay with HCT-15 colon, in the assay with SK-MEL-28 melanoma, in the assay on EKVX NSCLC, in the assay on OVCAR-8 ovarian and in the assay on SF-268 CNS was above 100 µM each time. Further, the TGI in the assay with MCF7 breast, with HS 578T breast and in the assay with SK-MEL-2 melanoma was above 100 µM throughout.
Take `COc1cc(/C=C2\C[C@H]3[C@@H]4CC=C5C[C@@H](OC(C)=O)CC[C@]5(C)[C@H]4CC[C@]3(C)[C@H]2OC(C)=O)ccc1OCCN1CCCC1`: the GI50 was 12800 nM with SK-MEL-28 melanoma; 10.3 µM in the assay with OVCAR-8 ovarian; 8.94 µM in the assay with SF-268 CNS; 11.1 µM in the assay with MCF7 breast; 9.32 µM with HS 578T breast; 6.97 µM in the assay on SK-MEL-5 melanoma. Also, in the assay on SK-MEL-2 melanoma, the GI50 is 20.2 µM. Also, the TGI is above 50 µM in the assay on SK-MEL-28 melanoma; 21.4 µM in the assay with OVCAR-8 ovarian; 18.8 µM in the assay with SF-268 CNS; 29.6 µM in the assay with MCF7 breast; 18.8 µM with HS 578T breast; 15.1 µM in the assay with SK-MEL-5 melanoma. In the assay with SK-MEL-2 melanoma, the TGI is above 50 µM.
Turning to `CN(C)c1ccc(N=C2C=CC(=O)c3ccccc32)cc1`, the GI50 was 4.1 µM in the assay on ACHN renal; 2360 nM with HCT-15 colon; 2380 nM in the assay with SK-MEL-28 melanoma; 3.71 µM in the assay on OVCAR-8 ovarian; 2.92 µM with SF-268 CNS; 1.87 µM with MCF7 breast. Also, the results for the GI50 in the assay with HS 578T breast, in the assay on SK-MEL-5 melanoma and in the assay with SK-MEL-2 melanoma were 1.97 µM, 1.34 µM and 3.5 µM, respectively. Besides, the TGI in the assay on ACHN renal amounted to 18.4 µM; in the assay on HCT-15 colon, 17.7 µM; with SK-MEL-28 melanoma, 5.73 µM; in the assay on OVCAR-8 ovarian it was 18.2 µM; in the assay on SF-268 CNS it was 13.1 µM; in the assay with MCF7 breast, 7.46 µM. The results for the TGI with HS 578T breast, in the assay on SK-MEL-5 melanoma and with SK-MEL-2 melanoma were 6.09 µM, 2.72 µM and 11 µM, respectively.
